# Source: EP0436902B1, “5-Fluorouracil derivatives” (OTSUKA PHARMACEUTICAL CO., LTD., priority 1984, dated 1986)
# Tested on: Sarcoma-180
# Test: Pharmacological Test I: antitumor effect on subcutaneously transplanted Sarcoma-180 solid tumor in mice
# Assay type: in vivo
# Conditions: Mus musculus, 240 h; ICR mice, Sarcoma-180 2 X 10⁷ cells subcutaneously; oral, once a day for 7 consecutive days, suspended in 5 % gum arabic; tumor weight on the 10th day; from dose-response curve; read-out: ED₅₀ (50 % tumor inhibition dose in which T/C is 0.5)
# Method: Isophthaloyl chloride (1.50 g) and 6.0 ml of triethylamine were added to a solution of 1.00 g of 5-fluoro-1-(2-tetrahydrofuranyl)uracil in 50 ml of dioxane. The mixture was refluxed for 1.5 hours. The resulting precipitate was removed by filtration and the filtrate was concentrated. To the concentrate was added 50 ml of methylene chloride and thereto added was 10 ml of a solution of 1.50 g of 2,6-bis(trimethylsilyloxy)pyridine in methylene chloride. The mixture was left to stand at room temperature for 3 hours. The solvent was distilled off and the residue was subjected to silica gel column chromatography using as an eluent 2 % methanol-chloroform, giving 0.30 g of the title compound in a yield of 14 %. ¹H-NMR(CDCl₃)δ: 8.66-8.19 (3H, m, [drawing 76] 7.83-7.62 (2H, m, [drawing 77] and C₄-H of the pyridine ring) 7.52 (1H, d, J = 6Hz, C₆-H) 6.77 and 6.68 (each 1H, d, J = 8Hz, C₃·₅-H of the pyridine ring) 5.99-5.92 (1H, m, C1'-H) 4.30-3.88 (2H, m, C4'-H) 2.44-1.89 (4H, m, C2'·3'-H) Pharmacological Test I • (a) Sarcoma-180 subcultured in an ascites of ICR mice was diluted with a physiological saline solution and subcutaneously transplanted into the backs of ICR mice in an amount of 2 X 10⁷ cells each. Twenty-four hours after the transplantation, a test compound suspended in a 5 % solution of gum arabic was orally administered to each of mice once a day for 7 consecutive days.
# The solid tumor was extirpated from under the dorsal skin of mice on the 10th day after the transplantation to measure the weight of the tumor. There was determined the ratio (T/C) of the weight or tumor (T) cut out from the group of mice treated with the test compound to the weight of tumor (C) from the group of mice not treated therewith. The 50 % tumor inhibition dose (ED₅₀ value) in which T/C is 0.5 was determined from the dose-response curve of dosage and the ratio (T/C).
# Table 1 below lists the results together with the value obtained by using as a control an anti-cancer preparation containing 5-fluoro-1-(2-tetrahydrofuranyl)uracil and uracil in a ratio by weight of 1 to 4.
row,SMILES,ED50 [mg/kg]
1,"O=C(Oc1cc[nH]c(=O)c1)c1cccc(C(=O)n2c(=O)c(F)cn(C3CCCO3)c2=O)c1 (centres unmarked) [Example 1, 3-[3-(1,2-dihydro-2-oxo-4-pyridyloxycarbonyl)benzoyl]-5-fluoro-1-(2-tetrahydrofuranyl)uracil]",10
2,"O=C(Oc1cc(OC(=O)c2cccc(C(=O)n3c(=O)c(F)cn(C4CCCO4)c3=O)c2)c(Cl)cn1)c1ccccc1 (centres unmarked) [Example 3, 3-[3-(2-benzoyloxy-5-chloro-4-pyridyloxycarbonyl)benzoyl]-5-fluoro-1-(2-tetrahydrofuranyl)uracil]",25
3,"O=C(Oc1cc(OC(=O)c2ccccc2)c(Cl)cn1)c1cccc(C(=O)n2c(=O)c(F)cn(C3CCCO3)c2=O)c1 (centres unmarked) [Example 4, 3-[3-(4-benzoyloxy-5-chloro-2-pyridyloxycarbonyl)benzoyl]-5-fluoro-1-(2-tetrahydrofuranyl)uracil]",18
4,"O=C(Oc1cc(=O)n(C2CCCO2)cc1Cl)c1cccc(C(=O)n2c(=O)c(F)cn(C3CCCO3)c2=O)c1 (centres unmarked) [Example 10, 3-[3-[5-chloro-1,2-dihydro-2-oxo-1-(2-tetrahydrofuranyl)-4-pyridyloxycarbonyl]benzoyl]-5-fluoro-1-(2-tetrahydrofuranyl)uracil]",28
5,"N#Cc1ccc(OC(=O)c2ccco2)nc1OC(=O)c1cccc(C(=O)n2c(=O)c(F)cn(C3CCCO3)c2=O)c1 (centres unmarked) [Example 15, 3-[3-[3-cyano-6-(2-furoyloxy)-2-pyridyloxycarbonyl]benzoyl]-5-fluoro-1-(2-tetrahydrofuranyl)uracil]",18
